Experimental data: ChEMBL document CHEMBL1681702, “Biological activity and ligand binding mode to the progesterone receptor of A-homo analogues of progesterone” (Bioorg Med Chem, 2011)
Active and inactive are the calls of the source. No cut-off for these calls is given here.

Experiments:
[1] = molecular target: T1, Progesterone receptor (Homo sapiens) (UniProt P06401); experiment: Agonist activity at human progesterone receptor in human T47D cells assessed as induction of Bcl-xL gene expression at 10^-6 M after 6 hrs by quantitative PCR; format: functional, cell-based
T1 sequence (whole entry): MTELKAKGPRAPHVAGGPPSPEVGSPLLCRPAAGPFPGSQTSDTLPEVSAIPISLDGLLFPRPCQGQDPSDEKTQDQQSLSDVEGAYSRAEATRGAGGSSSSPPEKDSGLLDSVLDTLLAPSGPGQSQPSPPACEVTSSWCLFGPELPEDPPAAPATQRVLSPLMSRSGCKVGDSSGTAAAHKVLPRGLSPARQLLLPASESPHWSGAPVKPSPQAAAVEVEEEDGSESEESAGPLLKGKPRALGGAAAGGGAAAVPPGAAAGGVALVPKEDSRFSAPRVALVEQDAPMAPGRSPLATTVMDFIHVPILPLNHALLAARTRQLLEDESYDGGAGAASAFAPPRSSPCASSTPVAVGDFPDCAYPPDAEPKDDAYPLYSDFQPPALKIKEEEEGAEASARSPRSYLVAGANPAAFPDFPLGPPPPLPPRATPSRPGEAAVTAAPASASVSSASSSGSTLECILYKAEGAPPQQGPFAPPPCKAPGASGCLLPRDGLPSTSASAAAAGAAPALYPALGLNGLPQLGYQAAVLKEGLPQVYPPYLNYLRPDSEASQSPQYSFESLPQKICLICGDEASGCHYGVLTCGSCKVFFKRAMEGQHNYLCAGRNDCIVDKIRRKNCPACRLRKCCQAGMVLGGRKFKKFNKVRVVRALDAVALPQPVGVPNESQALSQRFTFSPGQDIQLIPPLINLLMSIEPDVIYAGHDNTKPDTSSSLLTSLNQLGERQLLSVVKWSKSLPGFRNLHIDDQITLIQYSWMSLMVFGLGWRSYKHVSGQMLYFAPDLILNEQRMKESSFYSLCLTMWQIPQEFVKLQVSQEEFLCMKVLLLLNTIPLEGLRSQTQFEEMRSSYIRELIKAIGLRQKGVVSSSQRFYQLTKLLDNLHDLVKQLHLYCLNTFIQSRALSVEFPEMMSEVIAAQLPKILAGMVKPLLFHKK

[2] = molecular target: T1, Progesterone receptor (Homo sapiens); experiment: Transactivation activity at human progesterone receptor isoform B expressed in human Cos1 cells co-transfected with luciferase reporter gene linked to MMTV promoter at 10^-7 M after 24 hrs; format: cell-based
[3] = molecular target: T1, Progesterone receptor (Homo sapiens); experiment: Transactivation activity at human progesterone receptor isoform B expressed in human Cos1 cells co-transfected with luciferase reporter gene linked to MMTV promoter at 10^-6 M after 24 hrs; format: cell-based
[4] = molecular target: T2, Mineralocorticoid receptor (Homo sapiens) (UniProt P08235); experiment: Transactivation activity at human MR expressed in human Cos1 cells co-transfected with luciferase reporter gene linked to MMTV promoter and pCMV-LacZ vector at 10^-5 M after 24 hrs; format: cell-based
T2 sequence (whole entry): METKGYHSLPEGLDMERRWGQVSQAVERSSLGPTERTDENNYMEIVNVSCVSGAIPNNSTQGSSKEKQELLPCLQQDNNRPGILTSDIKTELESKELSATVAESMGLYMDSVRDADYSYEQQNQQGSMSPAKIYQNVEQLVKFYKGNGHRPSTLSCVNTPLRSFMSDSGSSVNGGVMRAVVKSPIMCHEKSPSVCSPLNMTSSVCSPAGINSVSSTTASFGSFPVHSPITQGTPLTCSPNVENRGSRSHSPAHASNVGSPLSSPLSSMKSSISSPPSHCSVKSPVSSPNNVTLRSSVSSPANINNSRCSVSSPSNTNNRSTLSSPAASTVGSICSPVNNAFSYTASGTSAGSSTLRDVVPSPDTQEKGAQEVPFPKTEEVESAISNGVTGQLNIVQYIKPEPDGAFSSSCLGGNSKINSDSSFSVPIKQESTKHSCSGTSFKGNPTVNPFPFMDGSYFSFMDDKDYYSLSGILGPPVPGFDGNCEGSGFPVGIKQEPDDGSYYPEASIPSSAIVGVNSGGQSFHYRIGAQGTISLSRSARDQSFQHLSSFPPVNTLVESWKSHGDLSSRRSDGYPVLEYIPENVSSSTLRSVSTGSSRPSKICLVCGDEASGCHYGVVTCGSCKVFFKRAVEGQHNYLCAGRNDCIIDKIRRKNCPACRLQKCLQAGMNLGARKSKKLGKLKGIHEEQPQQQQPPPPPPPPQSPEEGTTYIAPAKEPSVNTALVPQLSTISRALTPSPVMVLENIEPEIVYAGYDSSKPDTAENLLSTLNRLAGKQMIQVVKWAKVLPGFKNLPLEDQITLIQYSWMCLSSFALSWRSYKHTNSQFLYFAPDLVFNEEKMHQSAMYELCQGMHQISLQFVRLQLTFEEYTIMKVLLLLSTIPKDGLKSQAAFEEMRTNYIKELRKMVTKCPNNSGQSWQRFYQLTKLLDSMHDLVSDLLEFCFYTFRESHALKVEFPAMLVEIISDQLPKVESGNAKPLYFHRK

[5] = molecular target: T2, Mineralocorticoid receptor (Homo sapiens); experiment: Antagonist activity at human MR expressed in human Cos1 cells co-transfected with luciferase reporter gene linked to MMTV promoter and pCMV-LacZ vector assessed as effect on aldosterone-induced activity at 10^-5 M after 24 hrs; format: functional, cell-based

Row | Structure (SMILES) | Activity [1] | Activity [2] | Activity [3] | Activity [4] | Activity [5]
1 | CC(=O)[C@H]1CC[C@H]2[C@@H]3CC=C4CCC(=O)CC[C@]4(C)[C@H]3CC[C@]12C | Active | Active | Active | inactive | inactive
2 | CC(=O)[C@H]1CC[C@H]2[C@@H]3CC=C4CC(=O)CCC[C@]4(C)[C@H]3CC[C@]12C | Active | Active | Active | inactive | inactive
